Laboratory results published in the CheMixHub viscosity set.

Experiment: xn = mol fraction of the nth substance listed

ClCCl + Cc1cccc(C)c1
101 kPa
Settings	viscosity [mPa·s]
293.15 K, x1 = 0.2258	0.583
293.15 K, x1 = 0.4249	0.553
293.15 K, x1 = 0.4896	0.541
293.15 K, x1 = 0.5542	0.528
293.15 K, x1 = 0.6288	0.512
293.15 K, x1 = 0.769	0.482
293.15 K, x1 = 0.8151	0.472
298.15 K, x1 = 0.2398	0.55
298.15 K, x1 = 0.4075	0.527
298.15 K, x1 = 0.4997	0.511
298.15 K, x1 = 0.5622	0.501
298.15 K, x1 = 0.6288	0.485
298.15 K, x1 = 0.6891	0.474
298.15 K, x1 = 0.7634	0.461
298.15 K, x1 = 0.8183	0.451
298.15 K, x1 = 0.8586	0.446
303.15 K, x1 = 0.3947	0.501
303.15 K, x1 = 0.4925	0.483
303.15 K, x1 = 0.5836	0.466
303.15 K, x1 = 0.6551	0.453
303.15 K, x1 = 0.7164	0.441
303.15 K, x1 = 0.7934	0.428
303.15 K, x1 = 0.8418	0.421
303.15 K, x1 = 0.8669	0.417

CC(=O)O + Cc1ccccc1
viscosity [mPa·s]
Settings	293.15 K	303.15 K	313.15 K	323.15 K
101 kPa, x2 = 0.0642	–	–	0.9448	0.8122
101 kPa, x2 = 0.2052	–	–	0.6513	0.4846
101 kPa, x2 = 0.7929	–	–	0.4859	0.4171
101.33 kPa, x2 = 0.022	1.143	0.9772	0.8709	0.7709
101.33 kPa, x2 = 0.0569	1.06	0.907	0.8111	0.7288
101.33 kPa, x2 = 0.1191	0.9245	0.8216	0.731	0.641
101.33 kPa, x2 = 0.1879	0.8359	0.741	0.6554	0.59
101.33 kPa, x2 = 0.2626	0.7694	0.6753	0.603	0.5446
101.33 kPa, x2 = 0.352	0.7293	0.6216	0.561	0.5072
101.33 kPa, x2 = 0.4459	0.6757	0.5903	0.522	0.474
101.33 kPa, x2 = 0.4893	0.6542	0.5766	0.5131	0.4647
101.33 kPa, x2 = 0.5579	0.6349	0.5578	0.5022	0.4559
101.33 kPa, x2 = 0.6302	0.6233	0.5464	0.491	0.4486
101.33 kPa, x2 = 0.6817	0.6144	0.5382	0.4828	0.4384
101.33 kPa, x2 = 0.7391	0.6055	0.5304	0.4757	0.4319
101.33 kPa, x2 = 0.861	0.5941	0.5201	0.4619	0.42
101.33 kPa, x2 = 0.9262	0.588	0.513	0.4611	0.4194
101.33 kPa, x2 = 0.9645	0.5842	0.5088	0.4574	0.4163

ClCCl + Cc1ccccc1
101 kPa
Settings	viscosity [mPa·s]
293.15 K, x1 = 0.1635	0.564
293.15 K, x1 = 0.3002	0.543
293.15 K, x1 = 0.4025	0.528
293.15 K, x1 = 0.4771	0.517
293.15 K, x1 = 0.5025	0.511
293.15 K, x1 = 0.5801	0.498
293.15 K, x1 = 0.5919	0.496
293.15 K, x1 = 0.675	0.479
293.15 K, x1 = 0.7431	0.468
293.15 K, x1 = 0.788	0.465
298.15 K, x1 = 0.2198	0.525
298.15 K, x1 = 0.3271	0.51
298.15 K, x1 = 0.4201	0.497
298.15 K, x1 = 0.5108	0.48
298.15 K, x1 = 0.5701	0.472
298.15 K, x1 = 0.6325	0.462
298.15 K, x1 = 0.6841	0.455
298.15 K, x1 = 0.7201	0.45
298.15 K, x1 = 0.7501	0.447
303.15 K, x1 = 0.218	0.497
303.15 K, x1 = 0.3331	0.481
303.15 K, x1 = 0.4402	0.467
303.15 K, x1 = 0.5223	0.45
303.15 K, x1 = 0.6191	0.436
303.15 K, x1 = 0.694	0.424
303.15 K, x1 = 0.7651	0.415
303.15 K, x1 = 0.8053	0.412

ClCCl + Cc1ccccc1C
101 kPa
Settings	viscosity [mPa·s]
293.15 K, x1 = 0.3503	0.679
293.15 K, x1 = 0.4307	0.648
293.15 K, x1 = 0.4992	0.623
293.15 K, x1 = 0.5657	0.594
293.15 K, x1 = 0.6558	0.561
293.15 K, x1 = 0.7632	0.521
293.15 K, x1 = 0.8524	0.49
298.15 K, x1 = 0.2305	0.677
298.15 K, x1 = 0.3611	0.634
298.15 K, x1 = 0.449	0.602
298.15 K, x1 = 0.5343	0.572
298.15 K, x1 = 0.6293	0.542
298.15 K, x1 = 0.696	0.519
298.15 K, x1 = 0.7684	0.494
298.15 K, x1 = 0.826	0.476
298.15 K, x1 = 0.8658	0.465
303.15 K, x1 = 0.236	0.644
303.15 K, x1 = 0.3688	0.602
303.15 K, x1 = 0.4846	0.561
303.15 K, x1 = 0.5645	0.531
303.15 K, x1 = 0.6373	0.507
303.15 K, x1 = 0.7091	0.483
303.15 K, x1 = 0.7766	0.462
303.15 K, x1 = 0.8368	0.444
303.15 K, x1 = 0.861	0.437

C[Si]1(C)O[Si](C)(C)O[Si](C)(C)O[Si](C)(C)O1 + ClC(Cl)(Cl)Cl
101 kPa
Settings	viscosity [mPa·s]
298.15 K, x1 = 0.1089	1.044
298.15 K, x1 = 0.1965	1.14
298.15 K, x1 = 0.289	1.245
298.15 K, x1 = 0.4288	1.407
298.15 K, x1 = 0.5841	1.595
298.15 K, x1 = 0.659	1.694
298.15 K, x1 = 0.8443	1.95
298.15 K, x1 = 0.9264	2.073
298.15 K, x1 = 0.9773	2.147
308.15 K, x1 = 0.1756	0.964
308.15 K, x1 = 0.3239	1.101
308.15 K, x1 = 0.5732	1.339
308.15 K, x1 = 0.729	1.493
308.15 K, x1 = 0.8636	1.646
308.15 K, x2 = 0.0183	1.786
318.15 K, x1 = 0.1779	0.844
318.15 K, x1 = 0.3249	0.956
318.15 K, x1 = 0.5816	1.148
318.15 K, x1 = 0.7307	1.27
318.15 K, x1 = 0.8652	1.388
318.15 K, x2 = 0.0179	1.498

ClCCl + ClC(Cl)(Cl)Cl
Settings	viscosity [mPa·s]
303.15 K, 101.3 kPa, x2 = 0.506	0.5396
